Measured values as given in paper PMC8657773, “Development of a PROTAC-Based Targeting Strategy Provides a Mechanistically Unique Mode of Anti-Cytomegalovirus Activity” (International Journal of Molecular Sciences, 2021).
Where “and” joins values, the source holds several entries; their conditions need not be identical. Equal entries are not always repeated. Where two headings read alike, the source gives them in different places.

Legend:
[1] = test system: SARS-CoV-2 d6-YFP; set-up: method as in PMID 34578109; conditions: human Caco-2 cells, previously demonstrated; ref [41]; cited from earlier work
[2] = test system: HCMV AD169-GFP; set-up: method as in PMID 30452929, PMID 25624324; conditions: anti-HCMV, preceding determination; ref [22],[26]; cited from earlier work
[3] = test system: HCMV AD169-GFP; assay: microbe, parasite or virus in culture; format: cell-based, Human cytomegalovirus
[4] = in vitro; format: cell-based
Protocol: (§1) Drug induced cytotoxicity in HFF and other cell types was measured as a reduction of cell viability determined by Neutral Red uptake assay (NRA), as described previously. Briefly, compound treated cells were incubated with a final concentration of 40 μg/mL Neutral Red (Sigma Aldrich, St. Louis, MO, USA) for 1 to 4 h, depending on the cell type. The amount of incorporated Neutral Red was released from the cells by incubation with destaining solution (50% ethanol, 49% H2O, 1% acetic acid), and subsequently quantitated in a microplate reader by fluorescence measurement using 560/630 nm for excitation/emission, respectively. For determination of lactate dehydrogenase release into the cell culture supernatant, the CytoTox 96® Non-Radioactive Cytotoxicity Assay (Promega, Madison, WI, USA) was used according to the manufacturer’s protocol. Values were normalized to maximal release of LDH by measuring lysates of solvent-treated control cells. Cell viability was defined as the absence of cytotoxicity.

[5] = test system: HFFs; assay: in vitro; format: cell-based; conditions: human
Protocol: as §1

[6] = test system: HAdV-2; assay: HAdV-2 plaque formation assay in HFFs; format: cell-based, human adenovirus type 2; conditions: for EC50: HAdV-2, HFF, 10 d p.i.; for impact on HAdV-2 plaque formation: HFFs, at concentrations (0.03 µM) that produced anti-HCMV activity
[7] = test system: MCMV Smith-GFP; assay: microbe, parasite or virus in culture; format: cell-based, murine CMV; conditions: for EC50: Human betaherpesvirus 5, in Mus musculus, 120 h, MCMV Smith-GFP, 5 d p.i.
[8] = test system: VZV Oka-GFP; format: cell-based, varicella zoster virus; conditions: HFF, 1× TCID25^7d, 6 d p.i.
[9] = test system: SARS-CoV-2 d6-YFP; assay: microbe, parasite or virus in culture; format: cell-based
[10] = test system: MEFs; assay: in vitro; format: cell-based; conditions: mouse, 5 d
Protocol: as §1

[11] = Cell viability of Vero cells; format: cell-based; conditions: African green monkey
Protocol: as §1

[12] = Neutral Red uptake assay, uninfected MRC-5 cells; format: cell-based; conditions: human
Protocol: as §1

[13] = test system: HCMV Merlin; assay: HCMV-specific qPCR replication assay in MRC-5 cells; format: cell-based, Human cytomegalovirus
[14] = target: T1, CDK9 (Homo sapiens, UniProt P50750); assay: Western blot of CDK degradation in HFFs; format: cell-based; conditions: uninfected HFFs
T1 construct: endogenous in cells; host or cells: primary human foreskin fibroblasts (HFFs), mock- or HCMV AD169-infected
T1 sequence (P50750 whole entry): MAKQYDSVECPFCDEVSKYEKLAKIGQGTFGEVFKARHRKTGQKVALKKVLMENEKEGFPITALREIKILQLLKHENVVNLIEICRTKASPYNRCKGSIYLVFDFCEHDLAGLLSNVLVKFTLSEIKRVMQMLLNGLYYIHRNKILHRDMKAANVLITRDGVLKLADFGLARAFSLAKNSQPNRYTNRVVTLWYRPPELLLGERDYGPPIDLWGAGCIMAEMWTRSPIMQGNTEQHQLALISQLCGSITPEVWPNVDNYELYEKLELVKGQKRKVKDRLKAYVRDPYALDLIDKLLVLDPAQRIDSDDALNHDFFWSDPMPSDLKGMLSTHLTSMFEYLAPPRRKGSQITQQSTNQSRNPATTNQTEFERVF
Protocol: (§2) Western blot analyses of infected and mock-infected HFFs were performed as previously described. Antibodies specific for CDK9 (sc-484, Santa Cruz Biotechnology, Dallas, TX, USA), mAb-CDK1 (sc-54, Santa Cruz Biotechnology), pAb CDK2 (Sc-163, Santa Cruz Biotechnology), pAb-CDK7 (sc-723, Santa Cruz Biotechnology), and mAb β-actin (A5441, Sigma Aldrich, St. Louis, MO, USA) were used with an appropriate secondary antibody to detect the respective proteins.

[15] = target: T2, CDK7 (Homo sapiens, UniProt P50613); assay: Western blot of CDK degradation in HFFs; format: cell-based; conditions: uninfected HFFs
T2 construct: endogenous in cells; host or cells: primary human foreskin fibroblasts (HFFs), mock- or HCMV AD169-infected
T2 sequence (P50613 whole entry): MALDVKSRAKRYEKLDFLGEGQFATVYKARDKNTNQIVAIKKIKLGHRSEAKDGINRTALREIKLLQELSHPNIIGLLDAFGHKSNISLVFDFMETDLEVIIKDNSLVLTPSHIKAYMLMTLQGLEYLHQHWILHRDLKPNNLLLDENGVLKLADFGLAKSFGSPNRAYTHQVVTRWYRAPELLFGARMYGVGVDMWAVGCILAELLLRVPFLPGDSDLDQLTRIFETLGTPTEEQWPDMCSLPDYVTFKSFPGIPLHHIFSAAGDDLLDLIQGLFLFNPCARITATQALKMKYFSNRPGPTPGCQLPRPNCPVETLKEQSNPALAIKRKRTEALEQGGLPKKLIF
Protocol: as §2

[16] = target: T3, CDK2 (Homo sapiens, UniProt P24941); assay: Western blot of CDK degradation in HFFs; format: cell-based; conditions: uninfected HFFs
T3 construct: endogenous in cells; host or cells: primary human foreskin fibroblasts (HFFs), mock- or HCMV AD169-infected
Protocol: as §2

[17] = target: T4, CDK1 (Homo sapiens, UniProt P06493); assay: Western blot of CDK degradation in HFFs; format: cell-based; conditions: uninfected HFFs, up to 100 nM, up to 24 h
T4 construct: endogenous in cells; host or cells: primary human foreskin fibroblasts (HFFs), mock- or HCMV AD169-infected
T4 sequence (P06493 whole entry): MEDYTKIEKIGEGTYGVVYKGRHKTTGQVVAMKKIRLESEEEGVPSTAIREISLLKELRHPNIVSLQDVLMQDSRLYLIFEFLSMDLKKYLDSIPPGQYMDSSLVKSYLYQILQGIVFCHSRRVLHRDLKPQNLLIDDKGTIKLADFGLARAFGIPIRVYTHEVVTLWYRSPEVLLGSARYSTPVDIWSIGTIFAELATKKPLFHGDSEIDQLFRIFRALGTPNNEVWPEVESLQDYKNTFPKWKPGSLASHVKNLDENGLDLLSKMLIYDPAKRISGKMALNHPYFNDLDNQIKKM
Protocol: as §2

[18] = test system: HCMV Merlin; assay: HCMV-specific qPCR replication assay in TEV-1 trophoblast cells; format: cell-based, Human cytomegalovirus
[19] = target: T1, CDK9; assay: Western blot of CDK levels in HCMV-infected HFFs; format: cell-based; conditions: HCMV AD169-infected HFFs (MOI 2)
Protocol: as §2

[20] = target: T2, CDK7; assay: Western blot of CDK levels in HCMV-infected HFFs; format: cell-based; conditions: HCMV AD169-infected HFFs (MOI 2), THAL-SNS032 treatment, 1 and 3 d p.i.
Protocol: as §2

[21] = target: T3, CDK2; assay: Western blot of CDK levels in HCMV-infected HFFs; format: cell-based; conditions: HCMV AD169-infected HFFs (MOI 2), THAL-SNS032 treatment, 1 and 3 d p.i.
Protocol: as §2

[22] = target: T4, CDK1; assay: Western blot of CDK levels in HCMV-infected HFFs; format: cell-based; conditions: HCMV AD169-infected HFFs (MOI 2), THAL-SNS032 treatment, 1 and 3 d p.i.
Protocol: as §2

[23] = test system: TEV-1 trophoblast cells; assay: Transwell migration assay, HCMV AD169-infected TEV-1 trophoblasts; format: cell-based, human; conditions: HCMV AD169-infected TEV-1 (MOI 2)
[24] = test system: ZIKV PRVABC59; assay: ZIKV qPCR replication assay in Vero cells; format: cell-based, Zika virus; conditions: for EC50: ZIKV PRVABC59, Vero
[25] = MEF, 1× TCID25^5d, Table 1 summary
[26] = Human betaherpesvirus 5, AD169, 168 h
[27] = Human betaherpesvirus 5, AD169, HFF-1, 168 h
[28] = Severe acute respiratory syndrome coronavirus 2, Caco-2
[29] = Severe acute respiratory syndrome coronavirus 2, Caco-2, 30 h
[30] = washout after 24 h treatment, initial levels reconstituted after 24 h

## CC(C)c1cnn2c(NCc3ccccc3-n3cccn3)nc(OC3CCCNC3)nc12 (stereo not shown) [LDC4297]
[1]
  impairment of SARS-CoV-2 replication: inactive
[2]
  EC50: 30 nM

## O=C1Cc2c([nH]c3ccc([N+](=O)[O-])cc23)-c2ccccc2N1 [R25/alsterpaullone, alsterpaullone]
[1]
  impairment of SARS-CoV-2 replication: effective

## Cc1c(Br)c(Br)c2c3c1nc(N1CCNCC1)n3CCC2 [SEL120]
[3]; Human betaherpesvirus 5, AD169
  EC50: 120 ± 70 nM

## CC(C)(C)c1cnc(CSc2cnc(NC(=O)C3CCNCC3)s2)o1 [SNS032]
[4]; human
  CC50 at 48 h: 59500 ± 7000 nM
[4]; human, CC50
  CC50: 240 ± 22 nM
[4]; mouse, CC50
  CC50: 1030 ± 50 nM
  CC50 at 5 d: ~1000 nM
[5]
  CC50: 220 ± 40 nM
[6]
  EC50: inactive
  impact on HAdV-2 plaque formation: none of the drugs produced a measurable impact
[7]; [25]
  EC50: 290 ± 50 nM
[7]; MCMV/MEF, Figure 6 experiment
  SI: 3.5
[7]; MCMV/MEF, Table 1 summary
  SI: 3.5
[8]
  EC50: inactive
[1]
  impairment of SARS-CoV-2 replication: effective
[3]; HCMV AD169-GFP/HFF, Table 1 summary
  SI: 2.0
[3]; HCMV AD169-GFP/HFF, representative experiment (Figure 3)
  SI: 2.3
[3]; [26]
  EC50: 105 ± 4 nM
[3]; [27]
  EC50: 110 ± 20 nM
[9]
  EC50: 180 ± 30 nM
[9]; Caco-2, conventional treatment
  SI: 340
[9]; Caco-2, only pretreatment
  SI: 397
[9]; [28]
  EC50: 150 ± 30 nM
[9]; [29]
  EC50: 175 ± 250 nM

## CC(C)(C)c1cnc(CSc2cnc(NC(=O)C3CCN(CC(=O)NCCOCCOCCOCCNc4cccc5c4C(=O)N(C4CCC(=O)NC4=O)C5=O)CC3)s2)o1 (stereo not shown) [THAL-SNS032]
[4]; human
  CC50: 4030 nM
  CC50 at 48 h: 64900 ± 16200 nM
[4]; human, CC50
  CC50: 125 ± 14 nM
[4]; mouse, CC50
  CC50: 1000 ± 220 nM
  CC50 at 5 d: ~1000 nM
[10]
  CC50: 960 ± 120 nM
[11]
  CC50 at 4 d: 43900 nM
[12]
  CC50: 4650 nM
[13]; Human betaherpesvirus 5, MRC5, 96 h, HCMV Merlin, MRC-5, MOI 0.02, 4 d p.i., read-out: EC50
  EC50: 370 nM
[13]; Human betaherpesvirus 5, MRC5, 96 h, HCMV Merlin, MRC-5, MOI 0.2, 4 d p.i., read-out: EC50
  EC50: 1770 nM
[13]; Human betaherpesvirus 5, MRC5, 168 h, HCMV Merlin, MRC-5, MOI 0.002, 7 d p.i., read-out: EC50
  EC50: 570 nM
[13]; Human betaherpesvirus 5, MRC5, 168 h, HCMV Merlin, MRC-5, MOI 0.02, 7 d p.i., read-out: EC50
  EC50: 400 nM
[13]; Human betaherpesvirus 5, MRC5, 168 h, HCMV Merlin, MRC-5, MOI 0.2, 7 d p.i., read-out: EC50
  EC50: 3070 nM
[13]; Human betaherpesvirus 5, MRC5, 240 h, HCMV Merlin, MRC-5, MOI 0.002, 10 d p.i., read-out: EC50
  EC50: 940 nM
[13]; Human betaherpesvirus 5, MRC5, MRC-5, lower MOIs of 0.02 and 0.002, 4 to 10 days, read-out: EC50 values (range)
  EC50: 340 to 940 nM
[6]
  EC50: inactive
  impact on HAdV-2 plaque formation: none of the drugs produced a measurable impact
[7]
  EC50 Ratio SNS032/ THAL-SNS032: 1.4
  SI: 4.7
[7]; [25]
  EC50: 210 ± 90 nM
[7]; MEFs, Figure 6 experiment
  EC50: 220 ± 80 nM
[8]
  EC50: inactive
[14]; 10 nM, beginning with 6 h
  CDK9 protein level: markedly reduced
[14]; 100 nM, after 40 min
  CDK9 protein level: decreased protein levels
[14]; [30]
  time reduced CDK9 level was maintained after washout: 6 h
[15]; 100 nM, 6 to 24 h
  CDK7 protein level (larger variety): decline in protein levels
[15]; [30]
  time reduced CDK7 level was maintained after washout: 6 h
[16]; 100 nM, 6 to 24 h
  CDK2 protein level: decline in protein levels
[16]; [30]
  time reduced CDK2 level was maintained after washout: 6 h
[17]
  CDK1 protein level: apparently not affected
[18]
  SI: 53.7 and 54
[18]; Human betaherpesvirus 5, 168 h, HCMV Merlin, TEV-1, 7 d p.i.
  EC50: 75 nM
[3]
  EC50 Ratio SNS032/ THAL-SNS032: 3.7
  SI: 5.7
[3]; [26]
  EC50: 25 ± 1 nM
[3]; [27]
  EC50: 30 ± 10 nM
[3]; Human betaherpesvirus 5, AD169, read-out: EC50 values (range) for HCMV
  EC50: 30 to 3070 nM
[19]; 1 nM, 1 and 3 d p.i.
  CDK9 protein level: partial reduction
[19]; 10 nM, 3 h p.i.
  CDK9 protein level: sufficient to deplete CDK9 levels
[20]
  CDK7 protein level: markedly reduced at 1 d p.i. and completely lost at 3 d p.i.
[21]
  CDK2 protein level: markedly reduced at 1 d p.i. and completely lost at 3 d p.i.
[22]
  CDK1 protein level: markedly reduced at 1 d p.i. and completely lost at 3 d p.i.
[23]; 0.5 µM, 21 h migration
  trophoblast migration: almost completely abolished trophoblast migration
[24]; Vero cells, concentrations up to 10 µM
  effect on ZIKV replication: did not affect virus replication
[24]; MOI 0.02, 1 d p.i.
  EC50: inactive
[24]; MOI 0.02, 2 d p.i.
  EC50: inactive
[24]; MOI 0.02, 3 d p.i.
  EC50: inactive
[24]; MOI 0.02, 4 d p.i.
  EC50: inactive
[9]
  EC50: 150 ± 20 nM
  EC50 Ratio SNS032/ THAL-SNS032: 1.6 and 1.7
  SI: 592
[9]; [28]
  EC50: 146 ± 22 nM
[9]; [29]
  EC50: 110 ± 20 nM

## Nc1nc(O)c2ncn(COC(CO)CO)c2n1 [ganciclovir]
[23]; 10 µM, vs infected untreated cells (p = 0.999)
  resolving HCMV inhibition of trophoblast migration: no effect
